From patent publication US20100048545A1, “Compounds and Compositions for Use in the Prevention and Treatment of Disorders of Fat Metabolism and Obesity” (INNODIA INC., priority 2006, published 2010)
“Also recorded” adds a separate entry of the source. Where two headings read alike, the source gives them in different places.

What was measured:
DIO-mice [1] = assay type: in vivo
Description: (§1) The objective of this study was to evaluate the effect of chronic administration of 4-hydroxyisoleucine (4-OH, compound 14a) on food consumption and body weight gain of DIO-mice. Both parameters were monitored for 1 week prior to the commencement of treatment, then for the 77 days of treatment and for an additional 12 days post-treatment.
C57BL/6 mice were received at 7-8 weeks of age and fed a high fat diet (60% of calories from fat) for several weeks. A total of 32 animals were used in the study. The animals were distributed into 4 groups (3 treated, 1 control group, all on high fat diet). Each group was composed of 8 animals. The mice were randomized according to body weight and basal glycemia values following a 5±0.5 hour fasting period.
The test agent was dissolved in reverse osmosis water. 4-Hydroxyisoleucine was aliquoted and kept at 4° C. Control animals received reverse osmosis water twice daily (group 1). Mice from groups 2, 3 and 4 were treated twice daily with 4-hydroxyisoleucine (4-OH, compound 14a) at 100, 50, and 25 mg/kg, respectively. All groups were treated by oral gavage. Treatment commenced on Day 0 and ended on Day 77. Food consumption was measured daily and averaged on a weekly basis beginning one week before the start of treatment as shown in FIG. 16B. Similarly, food consumption was monitored during the treatment period and for 12 days after treatment was stopped as shown in FIGS. 16A and 16B.

DIO-mice [2] = conditions: for food consumption: 4-OH 50 or 100 mg/kg
Description: as §1, with “14a) and Rosiglitazone, administered alone or in combination,” for “14a)”, “28” for “77”, “7” for “12”
A total of 72 animals were used in the study. The animals were distributed into 6 groups (5 treated, 1 control group, all on high fat diet). Each group was composed of 12 animals. The mice were randomized according to body weight and basal glycemia values following a 5±0.5 hour fasting period.
For the four weeks of treatment, the test articles were dissolved in reverse osmosis water. 4-Hydroxyisoleucine was aliquoted and kept at 4° C. (administration to groups 2, 3, and 6), while Rosiglitazone was freshly prepared daily and kept at 4° C. between the AM and PM administration to groups 4, 5, and 6. Control animals received reverse osmosis water twice daily (group 1). Mice from groups 2 and 3 were treated twice daily with 4-OH at 50 and 100 mg/kg, respectively. Animals from groups 4 and 5 received 1.5 and 5 mg/kg of Rosiglitazone, respectively. […] All groups were treated by oral gavage. Treatment commenced on Day 0 and ended on Day 28 (FIGS. 18A and 18C.
Food consumption was measured and averaged on a weekly basis beginning one week before the start of treatment as shown in FIGS. 18B and 18D as week −1. Similarly, food consumption was monitored for one week after treatment was stopped and is shown as week 5 in FIGS. 18B and 18D, In FIG. 18B, the food consumption over time for various treatment groups is illustrated by the bar graph.

ob/ob mouse = assay: Body weight gain and food consumption of ob/ob mice, 56 days; assay type: in vivo; conditions: 100 mg/kg twice daily
Description: The objective of this study was to evaluate the effect of chronic administration of 4-hydroxyisoleucine (4-OH, compound 14a) on food consumption and body weight gain in a genetic model of obesity, the ob/ob mouse. Body weight gain and food consumption were monitored for 1 week prior to the commencement of treatment, and then for the 56 days of treatment.
A total of 16 animals were used in the study. The animals were distributed into 2 groups (1 treated, 1 control group, all on standard chow). Each group was composed of 8 animals. The mice were randomized according to body weight values.
For the eight weeks of treatment, the test agent was dissolved in reverse osmosis water. 4-hydroxyisoleucine was aliquoted and kept at 4° C. Control animals received reverse osmosis water twice daily (group 1). Mice from group 2 were treated twice daily with 4-OH at 100 mg/kg. All groups were treated by oral gavage. Treatment commenced on Day 0 and ended on Day 56 (FIGS. 21A and 21B). Food consumption was measured daily and averaged on a weekly basis beginning one week before the start of treatment as shown in FIG. 21B.

white adipocytes = assay: Release and uptake of free fatty acids by ex vivo cultured white adipocytes of treated rats; assay type: cell-based, Wistar rats
Description: A total of 60 animals were used in the study. The animals were distributed into 6 groups; 1 group was fed standard chow, 1 group was fed a high fat, high sucrose (HFHS) diet with 28 days treatment, 1 untreated control group was fed a HFHS diet, and 1 untreated group was fed a HFHS diet, but with caloric intake restricted to match the caloric intake of the 4-OH treated animals (pair-fed animals). A fifth group was fed a high fat, high sucrose (HFHS) diet with 28 days treatment and received an acute oral administration of 4-OH just prior to experimentation on Day 29 of the study, and a sixth group was fed a HFHS diet, but with caloric intake restricted to match the caloric intake of the 4-OH treated animals receiving an acute oral administration of 4-OH on Day 29 of the study (pair-fed animals). Each group was composed of 10 animals. […] Body weights were measured once weekly from week 1 to week 4 of the study. The white adipose tissues of non-treated and treated rats were collected and cultured ex vivo. After 2 hours of culture, the relative release and uptake of free fatty acids by the adipocytes was measured in absence or presence of insulin, and standardized on the basis of DNA content of the cultures.

HSL = assay: RT-PCR gene expression in adipocytes of treated rats: HSL; assay type: in vivo
Experimental: (§2) As the ex vivo studies on adipocytes indicated the lipolytic effect of drug was due to chronic exposure (see previous example), a role in gene regulation was assessed. RT-PCR was used to assess the expression of genes in the adipocytes from treated and control animals.

FatB1 = assay: RT-PCR gene expression in adipocytes of treated rats: FatB1; assay type: in vivo; conditions: data not shown
Experimental: as §2

In the case of `C[C@@H]([C@H](C)O)[C@H](N)C(=O)O` [Compound 14a, (2S,3R,4S)-4-Hydroxyisoleucine], the body weight gain (DIO-mice [1]; 100 mg/kg twice daily, Day 28 to Day 84) was “significantly effective at controlling body weight gain”, the body weight gain (DIO-mice [1]; 100 mg/kg twice daily, Day 28 to Day 84, listed as 4-OH) was “sustained and highly significant” and the food consumption (DIO-mice [1]; 100 mg/kg twice daily, first week of treatment) was “slight decrease in food consumption”. For the same molecule, the “body weight gain and food consumption after treatment was stopped” value (DIO-mice [1]; 100 mg/kg, first week following cessation of treatment) was “increase in the first week following cessation of treatment”, the tolerability of treatment (DIO-mice [1]; 25, 50 and 100 mg/kg twice daily, oral gavage, 77 days) was “well-tolerated” and the body weight gain (DIO-mice [1]; 50 and 100 mg/kg twice daily, first three weeks of treatment) was “moderation of weight gain was observed”. For the same molecule, the weight gain (DIO-mice [2]; 4-OH 100 mg/kg twice daily) was “Moderation of weight gain was observed”, the food consumption (DIO-mice [2]; first week of treatment, listed as 4-OH) was “food consumption decreased; also recorded: reduction in food consumption during the first week, but not after” and the food consumption (DIO-mice [2]; remainder of the treatment phase) was “consumption returned to pre-treatment levels”. The weight gain (DIO-mice [2]; Rosiglitazone 1.5 mg/kg with 4-OH 50 mg/kg, relative to the group treated with Rosiglitazone alone) was “able to modulate the weight gain induced by Rosiglitazone”, the food consumption (ob/ob mouse) was “slight decrease in food consumption during the first three weeks of treatment” and the weight gain (ob/ob mouse; Day 21 to Day 56, vs control group) was “significantly reduced”. For the same molecule, the weight gain (ob/ob mouse; course of treatment) was “moderation of weight gain was observed”, the tolerability of treatment (ob/ob mouse; oral gavage, 56 days) was “well tolerated” and the “fatty acid uptake in presence of insulin” value (white adipocytes; 2 hours of culture) was “not significantly different across all groups”. The “basal fatty acid release” value (white adipocytes; 2 hours of culture, absence of insulin, vs pair-fed groups, p<0.01) was “significant increased basal fatty acid release”, the “insulin stimulated release of fatty acid” value (white adipocytes; vs pair fed groups and HFHS control, p<0.01) was “significantly increased” and the “expression of hormone sensitive lipase (HSL), increase” value (HSL) was 1.3-1.4 times. For the same molecule, the “Increase (x times) in expression of HSL” value (HSL; HFHS diet, treated for 4 weeks (28 days)) was 1.3 x times and the “expression of FatB1” value (FatB1) was “Upregulation”.
